In patent publication US8388975B2, “Cancer antigen peptides derived from WT1” (International Institute of Cancer Immunology, Inc., priority 2004, dated 2013):
Read-outs that look alike come from different tables or passages of the source. Ends that are not written are not given here.

Columns and labels:
B-LCL cells [1] = tested on: B-LCL cells
Method: (§1) The cytotoxic activity of CTLs on target cells was measured by ^51Cr-release assay. The ^51Cr-labeled target cells (1×10^4 cells/100 μL in total) were cocultured with different numbers of effector cells (100 μL) in a round-bottom 96-well plate. After culturing at 37° C. for 3-5 hours, the plate was centrifuged to separate the supernatant (100 μL) which was subjected to the measurement of γ ray. Specific cytotoxicity (% specific lysis) was calculated as follows: % specific lysis=(cpm experimental release−cpm spontaneous release)/(cpm maximal release−cpm spontaneous release)×100
One week later, PBMCs were pulsed with the peptide of SEQ ID NO: 8, and used as stimulators in the stimulation. The stimulation was conducted every one week 3 times in total. After 3 times of stimulation, CD8-positive cells were enriched by negative selection method. Further, stimulation with the peptide of SEQ ID NO: 8 was conducted 2 times. […] Experiments were carried out in the same manner as above using a peptide of SEQ ID NO: 9 and a peptide of SEQ ID NO: 2.

B-LCL cells [2] = tested on: B-LCL cells; remark: listed apart in the source
Method: as §1

Method for JY cell line: (§2) After obtaining informed-consent, blood was collected from HLA-A*0201-positive healthy subjects and peripheral blood mononuclear cells (PBMCs) were isolated using Ficoll-Hypaque separation solution. HLA-A*0201-positive T2 cell lines incapable of presenting endogenous peptides to HLA due to deficit in TAP gene (J. Immunol. 150: 1763, 1993) were pulsed with the peptide of SEQ ID NO: 3 at 20 μM for 2 hours, then radiated (7500 cGy), and co-cultured with PBMCs at the cell number ratio of 1:1. As the culture solution, a complete medium composed of 45% AIM-V medium, 45% RPMI1640 medium, 10% inactivated human serum, 0.1 mM MEM non-essential amino acids, 100 ng/mL streptomycin, 100 IU/mL penicillin and 25 ng/mL 2-mercaptoethanol was used. Seven days later, the second-time stimulation was conducted in a similar manner, and thereto was added 25 IU/mL of IL-2 (Shionogi & Co., Ltd) on the next day. Stimulation was conducted five times in total, and effector cells obtained after 5 days from the last stimulation were used in the measurement of cytotoxicity.
(§3) The cytotoxic activity of CTLs on target cells was measured by ^51Cr-release assay. […] Specific cytotoxicity (% specific lysis) was calculated as follows: % specific lysis=(cpm experimental release−cpm spontaneous release)/(cpm maximal release−cpm spontaneous release)×100
Method for T2 cells: After obtaining informed-consent, blood was collected from HLA-A*0201-positive healthy subjects and peripheral blood mononuclear cells (PBMCs) were isolated using Ficoll-Hypaque separation solution. HLA-A*0201-positive T2 cell lines incapable of presenting endogenous peptides to HLA due to deficit in TAP gene (J. Immunol. 150: 1763, 1993) were pulsed with the peptide of SEQ ID NO: 3 at 20 μM for 2 hours, then radiated (7500 cGy), and co-cultured with PBMCs at the cell number ratio of 1:1. […]
as §3
The “spontaneous release” and the “maximal release” were measured in the supernatant obtained from the culture of target cells and that obtained from the culture of target cells treated with 1% Triton X-100 solution, respectively. […] The cytotoxic activity was measured using, as target cells, T2 cells pulsed with the same peptide as used in the stimulation or T2 cells not pulsed with the peptide.
Method for TF-1 cell line: as §2, §3

Row | Sequence | cytotoxic activity of CTLs induced by stimulation with the peptide on TF-1 cells (TF-1 cell line) | cytotoxic activity (% specific lysis) of CTLs induced by stimulation with the peptide (T2 cells) | cytotoxic activity of CTLs induced by stimulation with the peptide on JY cells (JY cell line) | cytotoxic activity (% specific lysis) of CTLs induced by stimulation with the peptide (B-LCL cells [1]) | cytotoxic activity (% specific lysis) of CTLs induced by stimulation with the peptide (B-LCL cells [2])
1 | DLNALLPAV [SEQ ID NO: 3, Asp Leu Asn Ala Leu Leu Pro Ala Val] | killed TF-1 cells | more potent cytotoxic activity on T2 cells pulsed with the peptide than on T2 cells not-pulsed with the peptide | not JY cells |  | 
2 | VTFDGTPSY [SEQ ID NO: 8] |  |  |  | more potent cytotoxic activity on B-LCL cells pulsed with the peptide than on B-LCL cells not-pulsed with the peptide | 
3 | DQLKRHQRR [SEQ ID NO: 2] |  |  |  | more potent cytotoxic activity on B-LCL cells pulsed with the peptide than on B-LCL cells not-pulsed with the peptide | more potent cytotoxic activity on B-LCL cells pulsed with the peptide than on B-LCL cells not-pulsed with the peptide
4 | QGSLGEQQY [SEQ ID NO: 9] |  |  |  | more potent cytotoxic activity on B-LCL cells pulsed with the peptide than on B-LCL cells not-pulsed with the peptide | 
